Patent US20220251084A1, “PROGRANULIN MODULATORS AND METHODS OF USING THE SAME” (ARKUDA THERAPEUTICS, priority 2019, published 2022)

What follows are compounds tested on progranulin (PGRN) secretion, BV-2 cells (assay: PGRN assay: progranulin induction cellular assay (ELISA of secreted mouse PGRN)). Settings: Mus musculus, BV-2.
Assay type: cell-based
Protocol: Cellular Assays: To measure the efficacy of compounds, a progranulin induction cellular assay in mouse primary microglia (pMG), primary cortical neurons, and BV-2 cell lines is used. BV-2 cells are split the day before plating into a 96 well plate format at approximately 80%. Cells should be plated the day before and allowed for 1 hour attachment period and for 16 hour incubation. […] Standard ELISA kits to measure PGRN are available from vendors such as Adipogen, R&D, and Biovendor.

Question: Which EC50 does the source give for `COC(=O)c1ccc2c(c1)CCN(C(=O)O[C@@H]1CN3CCC1CC3)[C@@H]2c1ccc(F)cc1` [Compound 2087] here?
Answer: > 10000 nM

Question: For `CNC(=O)c1ccc2c(c1)[C@H](c1ccc(F)cc1)N(C(=O)O[C@@H]1CN3CCC1CC3)CC2` [Compound 2065], which EC50 is on record?
Answer: > 10000 nM

Question: How did the EC50 turn out when `CS(=O)(=O)c1ccc2c(c1)[C@H](c1ccc(F)cc1)N(C(=O)O[C@@H]1CN3CCC1CC3)CC2` [Compound 2031] was run?
Answer: 5750 nM

Same assay, conditions: Mus musculus, BV-2, PGRN assay, Table C; secreted mouse PGRN in cell culture medium, ELISA

Question: For `CN1CCC(COC(=O)N2CCc3ccccc3[C@@H]2c2cc(F)c(F)c(F)c2)CC1` [Compound 2142], which EC50 is on record?
Answer: 8490 nM

Question: `CN1CC2COC[C@@H](C1)[C@H]2OC(=O)N1CCc2ccccc2[C@@H]1c1ccc(F)cc1` (single isomer, unassigned) [Compound 2106] was tested. Which EC50 did it give?
Answer: > 10000 nM

Question: `COC(=O)c1ccc2c(c1)[C@H](c1ccc(F)cc1)N(C(=O)NCC13CCN(CC1)CC3)CC2` [Compound 2117, methyl (S)-1-(4-fluorophenyl)-2-((quinuclidin-4-ylmethyl)carbamoyl)-1,2,3,4-tetrahydroisoquinoline-7-carboxylate] was tested. Which EC50 did it give?
Answer: > 10000 nM

Question: `CNC(=O)c1ccc2c(c1)[C@@H](c1ccc(F)cc1)N(C(=O)OCC13CCN(CC1)CC3)CC2` [Compound 2060] was tested. Which EC50 did it give?
Answer: > 10000 nM

Question: For `O=C(CCC1CCNCC1)N1CCc2ccccc2[C@@H]1c1ccc(F)cc1` [Compound 2184, (S)-1-(1-(4-fluorophenyl)-3,4-dihydroisoquinolin-2(1H)-yl)-3-(piperidin-4-yl)propan-1-one], which EC50 is on record?
Answer: > 10000 nM

Question: How did the EC50 turn out when `O=C(OC1CC2CCN(C2)C1)N1CCc2ccccc2[C@@H]1c1ccc(F)cc1` (some centres unmarked) [Compound 2002] was run?
Answer: 748 nM

Question: `COC(=O)c1ccc2c(c1)[C@H](c1ccc(F)cc1)N(C(=O)N[C@@H]1CN3CCC1CC3)CC2` [Compound 2116, methyl (S)-1-(4-fluorophenyl)-2-(((S)-quinuclidin-3-yl)carbamoyl)-1,2,3,4-tetrahydroisoquinoline-7-carboxylate] was tested. Which EC50 did it give?
Answer: > 10000 nM

Question: For `C#CCOCCN1CCC(OC(=O)N2CCc3ccccc3[C@@H]2c2ccc(F)cc2)CC1` [Compound 2197, 1-(2-(prop-2-yn-1-yloxy)ethyl)piperidin-4-yl (S)-1-(4-fluorophenyl)-3,4-dihydroisoquinoline-2(1H)-carboxylate], which EC50 is on record?
Answer: 1060 nM

Question: `O=C(O[C@H]1CCCNC1)N1CCc2ccccc2[C@@H]1c1ccc(F)cc1` (single isomer, unassigned) [Compound 2168] was tested. Which EC50 did it give?
Answer: 2540 nM

Question: `CN1C[C@H]2CC[C@@H](C1)[C@H]2OC(=O)N1CCc2ccccc2[C@@H]1c1ccc(F)cc1` [Compound 2008] was tested. Which EC50 did it give?
Answer: 559 nM

Question: With `O=C(C(O)[C@@H]1CN2CCC1CC2)N1CCc2ccccc2[C@@H]1c1ccc(F)cc1` (stereo partly drawn) [Compound 2074, 1-((S)-1-(4-fluorophenyl)-3,4-dihydroisoquinolin-2(1H)-yl)-2-hydroxy-2-(quinuclidin-3-yl)ethanone] as the compound, how does the EC50 read?
Answer: 3400 nM

Question: How did the EC50 turn out when `CS(=O)(=O)c1ccc2c(c1)CCN(C(=O)N[C@@H]1CN3CCC1CC3)[C@@H]2c1ccc(F)cc1` [Compound 2041, 1-(4-fluorophenyl)-6-(methylsulfonyl)-N—((S)-quinuclidin-3-yl)-3,4-dihydroisoquinoline-2(1H)-carboxamide] was run?
Answer: > 10000 nM

Question: Which EC50 does the source give for `O=C(OCC12CCN(CC1)CC2)N1CCc2ccccc2[C@@H]1c1ccc(OCc2cncnc2)cc1` [Compound 2149] here?
Answer: > 10000 nM

Question: How did the EC50 turn out when `O=C(NCC1CCNCC1)N1CCc2ccccc2[C@@H]1c1ccc(F)cc1` [Compound 2165] was run?
Answer: > 10000 nM

Question: `O=C(O[C@@H]1CCCNC1)N1CCc2ccccc2[C@@H]1c1ccc(F)cc1` (single isomer, unassigned) [Compound 2181] was tested. Which EC50 did it give?
Answer: 220 nM

Question: For `C#CCOc1ccc2c(c1)CCN(C(=O)NCC13CCN(CC1)CC3)[C@H]2c1ccc(F)cc1` [Compound 2084], which EC50 is on record?
Answer: > 10000 nM

Question: How did the EC50 turn out when `O=C(OCC12CCN(CC1)CC2)N1CCc2ccccc2[C@H]1c1cccc(F)c1F` [Compound 2113] was run?
Answer: 596 nM

Question: With `CN1CCC(C)(OC(=O)N2CCc3ccccc3[C@@H]2c2ccc(F)cc2)CC1` [Compound 2129] as the compound, how does the EC50 read?
Answer: 358 nM

Question: With `O=C(OCC12CCN(CC1)CC2)N1CCc2ccccc2[C@H]1c1cc(F)c(F)c(F)c1` [Compound 2148] as the compound, how does the EC50 read?
Answer: 8830 nM

Question: For `O=C(NCC12CCN(CC1)C2)N1CCc2ccccc2[C@@H]1c1ccc(F)cc1` [Compound 2193, (S)—N-((1-azabicyclo[2.2.1]heptan-4-yl)methyl)-1-(4-fluorophenyl)-3,4-dihydroisoquinoline-2(1H)-carboxamide], which EC50 is on record?
Answer: 2510 nM

Question: Which EC50 does the source give for `CN1C2COCC1CC(OC(=O)N1CCc3ccccc3[C@@H]1c1ccc(F)cc1)C2` (some centres unmarked) [Compound 2067, (1 S)-9′-methyl-3′-oxa-9′-azabicyclo[3.3.1]nonan-7′-yl-1-(4-fluorophenyl)-3,4-dihydroisoquinoline-2(1H)-carboxylate] here?
Answer: 240 nM

Question: `CN1CCS(=O)(=O)[C@@H](CC(=O)N2CCc3ccccc3[C@@H]2c2ccc(F)cc2)C1` (single isomer, unassigned) [Compound 2043] was tested. Which EC50 did it give?
Answer: > 10000 nM

Question: How did the EC50 turn out when `COCCOCCOc1ccc(COc2ccc([C@@H]3c4ccccc4CCN3C(=O)OCC34CCN(CC3)CC4)cc2)cc1` [Compound 2047] was run?
Answer: > 2690 nM

Question: For `COC(=O)c1ccc2c(c1)CCN(C(=O)NCC13CCN(CC1)CC3)[C@@H]2c1ccc(F)cc1` [Compound 2069], which EC50 is on record?
Answer: 4130 nM

Question: With `O=C(N[C@H]1CCCNC1)N1CCc2ccccc2[C@@H]1c1ccc(F)cc1` [Compound 2171] as the compound, how does the EC50 read?
Answer: 130 nM

Same assay, conditions: Mus musculus, BV-2, PGRN assay, Table D; secreted mouse PGRN in cell culture medium, ELISA

Question: How did the EC50 turn out when `CN(CC1CNC1)C(=O)N1CCc2ccccc2[C@@H]1c1ccc(F)cc1` [Compound 2283, (S)—N-(azetidin-3-ylmethyl)-1-(4-fluorophenyl)-N-methyl-3,4-dihydroisoquinoline-2(1H)-carboxamide] was run?
Answer: > 10000 nM

Question: `O=C(N1CC[C@@]2(CNCCO2)C1)N1CCc2ccccc2[C@@H]1c1ccc(F)cc1` (single isomer, unassigned) [Compound 2324] was tested. Which EC50 did it give?
Answer: 742 nM

Question: `O=C(N1CC[C@@]2(CNCCO2)C1)N1CCc2ccccc2[C@H]1c1ccc(F)cc1` (single isomer, unassigned) [Compound 2323] was tested. Which EC50 did it give?
Answer: 8870 nM

Question: `CN1C[C@H](N(C)C(=O)N2CCc3ccccc3[C@@H]2c2ccc(F)cc2)C(F)(F)C1` [Compound 2299, (S)—N—((S)-4,4-difluoro-1-methylpyrrolidin-3-yl)-1-(4-fluorophenyl)-N-methyl-3,4-dihydroisoquinoline-2(1H)-carboxamide] was tested. Which EC50 did it give?
Answer: > 10000 nM

Question: With `CC1(C)CNC[C@@H]1NC(=O)N1CCc2ccccc2[C@@H]1c1ccc(F)cc1` [Compound 2268] as the compound, how does the EC50 read?
Answer: 180 nM

Question: For `O=C(N1CCNCC(F)(F)C1)N1CCc2ccccc2[C@@H]1c1ccc(F)cc1` [Compound 2262, (S)-(6,6-difluoro-1,4-diazepan-1-yl)(1-(4-fluorophenyl)-3,4-dihydroisoquinolin-2(1H)-yl)methanone], which EC50 is on record?
Answer: > 10000 nM

Question: For `O=C(NC[C@H]1CNCCO1)N1CCc2ccccc2[C@@H]1c1ccc(F)cc1` (single isomer, unassigned) [Compound 2210], which EC50 is on record?
Answer: 860 nM

Question: With `CN(C)C[C@H]1CCN(C(=O)N2CCc3ccccc3[C@@H]2c2ccc(F)cc2)C1` [Compound 2314] as the compound, how does the EC50 read?
Answer: 1660 nM

Question: For `O=C(N1CC[C@]2(CNCCO2)C1)N1CCc2ccccc2[C@H]1c1ccc(F)cc1` (single isomer, unassigned) [Compound 2325], which EC50 is on record?
Answer: 4700 nM

Question: `CN1CC[C@H](OC(=O)N2CCc3ccccc3[C@@H]2c2ccc(F)cc2)C1` [Compound 2251] was tested. Which EC50 did it give?
Answer: 110 nM

Question: Which EC50 does the source give for `O=C(NC[C@@H]1CNCCO1)N1CCc2ccccc2[C@@H]1c1ccc(F)cc1` [Compound 2209] here?
Answer: 730 nM

Question: Which EC50 does the source give for `CN(C(=O)N1CCc2ccccc2[C@@H]1c1ccc(F)cc1)[C@H]1CCNC1` [Compound 2248] here?
Answer: 1240 nM

Question: How did the EC50 turn out when `O=C(O[C@H]1CCNC1)N1CCc2ccccc2[C@H]1c1ccc(F)cc1` [Compound 2272] was run?
Answer: 2030 nM

Question: Which EC50 does the source give for `O=C(OC[C@@]1(F)CCNC1)N1CCc2ccccc2[C@@H]1c1ccc(F)cc1` (single isomer, unassigned) [Compound 2255] here?
Answer: 240 nM

Question: For `CN(C(=O)N1CCc2ccccc2[C@H]1c1ccc(F)cc1)[C@@H]1CCCNC1` (single isomer, unassigned) [Compound 2212], which EC50 is on record?
Answer: 3050 nM

Question: For `O=C(N[C@@H]1CNCC12CC2)N1CCc2ccccc2[C@@H]1c1ccc(F)cc1` [Compound 2281], which EC50 is on record?
Answer: 273 nM

Question: For `O=C(NC[C@H]1CCCN1)N1CCc2ccccc2[C@H]1c1ccc(F)cc1` (single isomer, unassigned) [Compound 2219], which EC50 is on record?
Answer: 6210 nM

Question: `CN(C(=O)N1CCc2ccccc2[C@@H]1c1ccc(F)cc1)[C@@H]1CCCNC1` (single isomer, unassigned) [Compound 2213] was tested. Which EC50 did it give?
Answer: 3530 nM

Question: With `CN1CC[C@H](O)[C@@H](OC(=O)N2CCc3ccccc3[C@@H]2c2ccc(F)cc2)[C@@H]1CO` (single isomer, unassigned) [Compound 2305] as the compound, how does the EC50 read?
Answer: 5870 nM

Question: Which EC50 does the source give for `O=C(NC[C@@H]1CCCN1)N1CCc2ccccc2[C@H]1c1ccc(F)cc1` [Compound 2218] here?
Answer: 3950 nM

Question: For `O=C(NC[C@H]1CCCN1)N1CCc2ccccc2[C@@H]1c1ccc(F)cc1` [Compound 2216], which EC50 is on record?
Answer: 2670 nM

Question: With `O=C(O[C@H]1CNCC12CC2)N1CCc2ccccc2[C@@H]1c1ccc(F)cc1` (stereo in doubt) [Compound 2309, 5-azaspiro[2.4]heptan-7-yl-(1 S)-1-(4-fluorophenyl)-3,4-dihydroisoquinoline-2(1H)-carboxylate] as the compound, how does the EC50 read?
Answer: 600 nM

Question: For `O=C(N[C@H]1CNC[C@@H]1F)N1CCc2ccccc2[C@@H]1c1ccc(F)cc1` [Compound 2351, (S)-1-(4-fluorophenyl)-N-((3S,4S)-4-fluoropyrrolidin-3-yl)-3,4-dihydroisoquinoline-2(1H)-carboxamide], which EC50 is on record?
Answer: 130 nM

Question: How did the EC50 turn out when `O=C(NC[C@@H]1CCCN1)N1CCc2ccccc2[C@@H]1c1ccc(F)cc1` [Compound 2217] was run?
Answer: 3940 nM

Question: With `NC[C@@H]1CN(C(=O)N2CCc3ccccc3[C@@H]2c2ccc(F)cc2)CCO1` [Compound 2302, ((R)-2-(aminomethyl)morpholino)((S)-1-(4-fluorophenyl)-3,4-dihydroisoquinolin-2(1H)-yl)methanone] as the compound, how does the EC50 read?
Answer: 160 nM
